The target of assay [1] is T1, rat VR1 capsaicin receptor (Rattus norvegicus, UniProt O35433).
T1 construct: expressed in transfected cells
The experiment in a line: Aequorin luminescence in VR1 cells (WALLAC MICROBETA JET). The class given is cell-based. The protocol: (§1) Parental HEK293 cell lines expressing apoaequorin (293AEQ17 cells) were used to develop stable clonal cell lines expressing the rat VR1 capsaicin receptor. The VR1 293AEQ17 were maintained on growth media containing DMEM (GIBCOBRL, high glucose, with L-glutamine, with 110 mg/L sodium pyruvate, with pyridoxine HCl), 25 mM HEPES (GIBCOBRL, 1M stock), 0.5 mg/mL geneticin (GIBCOBRL, 50 mg/mL stock), 1 μg/mL puromycin (CLONTECH), and 10% fetal bovine serum (GEMINI BIO-PRODUCTS, heat inactivated) at 37° C., 10% CO^2.
Cells were grown to 80-95% confluence in tissue culture flasks (T-225, Corning) and harvested by trypsinization (Trypsin/EDTA, GIBCOBRL). Cells were dispensed (about 1×10^5 cells/0.2 ml/well) into 96-well white clear-bottom BIOCOAT poly-D-lysine plates (BECTON DICKENSON, Bedford, Mass.) in growth media and incubated overnight at 37° C. in a humidified incubator at 10% CO^2. Cells were charged with the aequorin substrate, coelenterazine h (MOLECULAR PROBES, #C-6780), by removing the growth media and incubating the cells with 75 μl of charge buffer (DMEM GIBCOBRL #12320-032; 0.1% FBS GEMINI BIO-PRODUCTS, Inc. #100-107;5 μM coelenterazine h; 30 μM reduced glutathione) for 2 hours at 37° C., 10% CO^2. The charge buffer was then removed and the cells were washed twice with 100 μl of enriched-PBS (pH 7.2) and then incubated with 100 μl of enriched-PBS supplemented with 0-30 μM BAPTA-AM for 30-120 min at 37° C., 10% CO^2. The cells were then washed and loaded with […] of enriched-PBS with or without the indicated antagonist. The calcium response was initiated by addition of 100 μl of the indicated concentration of capsaicin (SIGMA #M2028) to the wells by a WALLAC MICROBETA JET. In order to obtain more consistent kinetics, the Jet was set to simultaneously read only six wells per determination.
For these experiments, the kinetics of the flash luminescence were followed using a WALLAC MICROBETA JET luminometer that injects reagent and records light emission from six wells of a 96-well plate simultaneously.

Assay [2] concerns ligand-gated calcium channel. The experiment in a line: Model aequorin-based functional cellular assay for a ligand-gated calcium channel. The class given is cell-based. The settings on record: BAPTA-AM 0-30 uM, after injection of agonist. How it is done:
For this assay, HEK293 cells co-expressing the receptor of interest and apoaequorin were grown to confluence in BIOCOAT poly-D-lysine opaque white 96-well microtiter plates (BECTON DICKINSON). The cells were maintained on a standard growth media. The cells were charged with growth media supplemented with 5 uM of coelenterazine h (MOLECULAR PROBES, Eugene, Oreg.) for 2 hr at 37° C. in a humidified incubator at 5% CO2. The charged cells were then washed and loaded with assay buffer.
Addition of agonist caused the rapid and transient luminescent signal that was complete within 10-15 seconds (FIG. 1). The kinetics of the flash luminescent signal was followed by using a WALLAC MICROBETA JET instrument where agonist was injected directly into the wells containing the charged cells. As a buffering reagent the cell permeable acetoxymethyl ester BAPTA-AM was used. BAPTA is a specific calcium chelator that rapidly binds and releases calcium. […] A schematic representation of this assay appears in FIG. 2.
The addition of increasing levels of BAPTA-AM (0-30 uM) caused an initial delay in the aequorin-based luminescence signal upon injection of agonist and extended the signal far greater than 30 seconds (FIG. 1). The addition of a known receptor antagonist was able to completely block the signal (FIG. 3).

In assay [3] the test system is ionomycin-induced calcium influx. Particulars: presence of BAPTA-AM; cited from earlier work.
The target in assay [4] is T1, rat VR1 capsaicin receptor. The experiment in a line: Fluo-3 fluorescence calcium response in VR1 cells (VIPR). It counts as cell-based. The settings on record: 0.5 uM capsaicin. The protocol: as §1, with “receptor (Caterina, M. J., Schumacher, M. A., Tominaga, M., Rosen, T. A., Levine, J. D., and Julius, D. (1997) The capsaicin receptor: a heat-activated ion channel in the pain pathway. Nature 389, 816-824).” for “receptor.”
Cells were grown to 80-95% confluence in tissue culture flasks (T-225, CORNING) and harvested by trypsinization (Trypsin/EDTA, GIBCOBRL). Cells were dispensed (about 1×10^5 cells/0.2 ml/well) into 96-well black clear-bottom BIOCOAT poly-D-lysine plates (BECTON DICKENSON, Bedford, Mass.) in growth media and incubated overnight at 37° C. in a humidified incubator at 10% CO^2. Cells were washed once with 200 μls of enriched PBS (Dulbecco's PBS (GIBCOBRL #14040-117), 10 mM HEPES, 2 g/L glucose; pH 7.2) and then incubated with 100 μl of 5 μM fluo-3-AM (MOLECULAR PROBES #F1241) with or without of 1,2-bis(o-aminophenoxy)ethane-N,N,N′,N′-tetraacetic acid tetra(acetoxymethyl) ester (BAPTA-AM, MOLECULAR PROBES #B 1205) in enriched PBS containing 0.02% pluronic F-127 (MOLECULAR PROBES #P-3000) for 30-70 minutes. Wells were washed two times with 100 μl of enriched-PBS, and then 100 μl enriched-PBS with or without antagonist was added for 15-30 minutes prior to assay on the AURORA fluorescence plate reader VIPR (ex. 480 nm, em. 535 nm). […] The calcium response was initiated by addition of 100 μl of the indicated concentration of capsaicin (SIGMA #M2028). The VIPR instrument was used to add agonist (in 100 μl enriched-PBS) after recording a 10 sec. baseline and the fluorescence was measured for up to 300 sec.
Changes in intracellular calcium were measured using the fluo-3 dye and detecting the kinetics of the response after addition of the VR1 agonist, capsaicin (0.5 uM) to cells expressing VR1 using a VIPR fluorescence plate reader (FIGS. 5 & 6A).

We go through one molecule from patent publication US6514709B1, “High throughput screening by measurement of intracellular calcium levels” (Merck & Co., Inc., priority 2000, dated 2003).

T1 sequence (O35433 whole entry): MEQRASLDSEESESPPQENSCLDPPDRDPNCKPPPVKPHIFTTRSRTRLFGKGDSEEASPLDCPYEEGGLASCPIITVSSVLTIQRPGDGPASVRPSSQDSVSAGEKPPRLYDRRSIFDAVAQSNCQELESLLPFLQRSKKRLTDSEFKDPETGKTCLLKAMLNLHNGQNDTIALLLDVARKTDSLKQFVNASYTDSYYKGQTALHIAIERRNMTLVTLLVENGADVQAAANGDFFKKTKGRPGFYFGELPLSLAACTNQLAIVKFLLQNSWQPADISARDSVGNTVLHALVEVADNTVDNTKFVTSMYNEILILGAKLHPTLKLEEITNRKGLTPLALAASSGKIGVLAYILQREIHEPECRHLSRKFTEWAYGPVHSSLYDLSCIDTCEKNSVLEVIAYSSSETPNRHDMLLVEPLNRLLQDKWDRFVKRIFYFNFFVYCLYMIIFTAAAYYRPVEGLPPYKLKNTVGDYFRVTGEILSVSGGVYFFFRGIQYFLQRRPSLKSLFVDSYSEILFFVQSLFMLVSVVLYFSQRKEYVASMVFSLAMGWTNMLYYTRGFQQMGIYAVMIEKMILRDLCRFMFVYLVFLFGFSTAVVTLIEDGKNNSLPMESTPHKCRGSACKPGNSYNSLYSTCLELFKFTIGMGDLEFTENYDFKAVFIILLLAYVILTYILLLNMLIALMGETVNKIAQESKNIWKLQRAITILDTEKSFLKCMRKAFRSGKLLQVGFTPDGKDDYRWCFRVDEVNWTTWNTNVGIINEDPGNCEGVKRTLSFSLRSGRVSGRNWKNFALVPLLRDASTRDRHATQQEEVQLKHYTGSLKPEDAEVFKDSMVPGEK

For `CC(=O)OCOC(=O)CN(CC(=O)OCOC(C)=O)c1ccccc1OCCOc1ccccc1N(CC(=O)OCOC(C)=O)CC(=O)OCOC(C)=O` [BAPTA-AM, 1,2-bis(o-aminophenoxy)ethane-N,N,N′,N′-tetraacetic acid tetra(acetoxymethyl)ester], in assay [1] (0 μM to 30 μM BAPTA-AM), the “total signal at a given agonist concentration” value is “did not significantly vary”. In addition, the “time to peak response” value in assay [1] (30 μM BAPTA-AM, 0.5 μM capsaicin) is 10 s. In addition, the “duration of extended luminescence signal” value is on record as “up to 3 minutes” in assay [1] (BAPTA-AM 0-30 μM, 50 nM capsaicin, maximum time recorded) and “greater than 30 seconds” in assay [2]. In addition, the “time of maximum luminescence response” value in assay [1] (increasing BAPTA-AM 0-30 μM, 50 nM capsaicin) is 30 s. Further, the “slowing of calcium transients” value in assay [3] is reported as “up to 8 fold”. For the same molecule, in assay [4] (3 μM BAPTA-AM for 30 minutes), the “time to peak fluorescence signal” value is “about 40 sec”. The “fluo-3 signal decay time” value in assay [4] (3 μM BAPTA-AM) is on record as “about 150 s”. In addition, the peak response time entry in assay [4] (10 and 30 μM BAPTA-AM) is on record as “up to 100 sec”.
